# Measurements taken from the supplement of paper PMC9663587.
# Key:
# [1] = compound: CCc1cnn2c(NCc3ccc[n+]([O-])c3)cc(N3CCCC[C@H]3CCO)nc12; assay: GR value, 72 h; higher = faster growth (1 = untreated, <0 = killing);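 further: breast cancer and non-malignant breast epithelial lines, nine half-log doses, viable cells counted by Hoechst and LIVE/DEAD dye imaging versus time-zero plates and DMSO controls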
# Neratinib/HKI272 = compound: CCOc1cc2ncc(C#N)c(Nc3ccc(OCc4ccccn4)c(Cl)c3)c2cc1NC(=O)/C=C/CN(C)C [Neratinib/HKI272]; assay: as above
# THZ531 = compound: CN(C)C/C=C/C(=O)Nc1ccc(C(=O)N2CCC[C@@H](Nc3ncc(Cl)c(-c4c[nH]c5ccccc45)n3)C2)cc1 [THZ531]; assay: as above
# BSJ-03-123 = compound: CC(=O)c1c(C)c2cnc(Nc3ccc(N4CCN(CCOCCOCCOCCNC(=O)COc5cccc6c5C(=O)N(C5CCC(=O)NC5=O)C6=O)CC4)cn3)nc2n(C2CCCC2)c1=O [BSJ-03-123]; assay: as above
# [2] = compound: CCN1CCN(Cc2ccc(Nc3ncc(F)c(-c4cc(F)c5nc(C)n(C(C)C)c5c4)n3)nc2)CC1; assay: as above
# Flavopiridol [3] = compound: T1, CN1CC[C@H](c2c(O)cc(O)c3c(=O)cc(-c4ccccc4Cl)oc23)[C@H](O)C1 [Flavopiridol]; assay: as above
# THZ1 = compound: CN(C)C/C=C/C(=O)Nc1ccc(C(=O)Nc2cccc(Nc3ncc(Cl)c(-c4c[nH]c5ccccc45)n3)c2)cc1 [THZ1]; assay: as above
# YKL-5-124 = compound: C=CC(=O)Nc1ccc(C(=O)Nc2[nH]nc3c2CN(C(=O)N[C@H](CN(C)C)c2ccccc2)C3(C)C)cc1 [YKL-5-124]; assay: as above
# [4] = compound: CC(=O)c1c(C)c2cnc(Nc3ccc(N4CCNCC4)cn3)nc2n(C2CCCC2)c1=O; assay: as above
# LEE011/Ribociclib = compound: CN(C)C(=O)c1cc2cnc(Nc3ccc(N4CCNCC4)cn3)nc2n1C1CCCC1 [LEE011/Ribociclib]; assay: as above
# [5] = compound: CO[C@@H](C)Cn1c(=O)n(C)c2cnc3ccc(-c4cncc(C(C)(C)O)c4)cc3c21
# Taselisib/GDC0032 = compound: Cc1nc(-c2cn3c(n2)-c2ccc(-c4cnn(C(C)(C)C(N)=O)c4)cc2OCC3)n(C(C)C)n1 [Taselisib/GDC0032]
# ABT-737 = compound: CN(C)CC[C@H](CSc1ccccc1)Nc1ccc(S(=O)(=O)NC(=O)c2ccc(N3CCN(Cc4ccccc4-c4ccc(Cl)cc4)CC3)cc2)cc1[N+](=O)[O-] [ABT-737]
# Saracatinib/AZD0530 = compound: CN1CCN(CCOc2cc(OC3CCOCC3)c3c(Nc4c(Cl)ccc5c4OCO5)ncnc3c2)CC1 [Saracatinib/AZD0530]
# Flavopiridol [6] = compound: T1, Flavopiridol
# 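Wherever GR50, 72 h is given: breast cancer and non-malignant breast epithelial cell lines, Deep Dye Drop or Dye Drop imaging, nine half-log doses, GR normalized to time-zero plates and DMSO-only controls.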
cell line,measurement,setting,value
SUM190PT,GR value,[1]; 0.0001 µM,0.917 GR
same,GR value,[1]; 0.0003162 µM,0.931 GR
same,GR value,[1]; 0.001 µM,0.951 GR
same,GR value,[1]; 0.003162 µM,1.06 GR
same,GR value,[1]; 0.01 µM,0.98 GR
same,GR value,[1]; 0.03162 µM,-0.207 GR
same,GR value,[1]; 0.1 µM,-0.627 GR
same,GR value,[1]; 0.3162 µM,-0.643 GR
same,GR value,[1]; 1 µM,-0.724 GR
same,GR value,Neratinib/HKI272; 0.0003162 µM,1.06 GR
same,GR value,Neratinib/HKI272; 0.001 µM,1.04 GR
same,GR value,Neratinib/HKI272; 0.003162 µM,1.06 GR
same,GR value,Neratinib/HKI272; 0.01 µM,0.999 GR
same,GR value,Neratinib/HKI272; 0.03162 µM,1.08 GR
same,GR value,Neratinib/HKI272; 0.1 µM,0.956 GR
same,GR value,Neratinib/HKI272; 0.3162 µM,0.915 GR
same,GR value,Neratinib/HKI272; 1 µM,0.658 GR
same,GR value,Neratinib/HKI272; 3.162 µM,0.429 GR
same,GR value,THZ531; 0.0001 µM,1.07 GR
same,GR value,THZ531; 0.0003162 µM,0.955 GR
same,GR value,THZ531; 0.001 µM,0.949 GR
same,GR value,THZ531; 0.003162 µM,0.966 GR
same,GR value,THZ531; 0.01 µM,1.12 GR
same,GR value,THZ531; 0.03162 µM,0.889 GR
same,GR value,THZ531; 0.1 µM,-0.322 GR
same,GR value,THZ531; 0.3162 µM,-0.725 GR
same,GR value,THZ531; 1 µM,-0.492 GR
same,GR value,BSJ-03-123; 0.001 µM,0.831 GR
same,GR value,BSJ-03-123; 0.003162 µM,0.729 GR
same,GR value,BSJ-03-123; 0.01 µM,0.533 GR
same,GR value,BSJ-03-123; 0.03162 µM,0.491 GR
same,GR value,BSJ-03-123; 0.1 µM,0.451 GR
same,GR value,BSJ-03-123; 0.3162 µM,0.371 GR
same,GR value,BSJ-03-123; 1 µM,0.396 GR
same,GR value,BSJ-03-123; 3.162 µM,0.354 GR
same,GR value,BSJ-03-123; 10 µM,-0.286 GR
same,GR value,[2]; 0.001 µM,0.779 GR
same,GR value,[2]; 0.003162 µM,0.586 GR
same,GR value,[2]; 0.01 µM,0.444 GR
same,GR value,[2]; 0.03162 µM,0.349 GR
same,GR value,[2]; 0.1 µM,0.395 GR
same,GR value,[2]; 0.3162 µM,0.309 GR
same,GR value,[2]; 1 µM,0.343 GR
same,GR value,[2]; 3.162 µM,0.259 GR
same,GR value,[2]; 10 µM,-0.611 GR
same,GR value,Flavopiridol [3]; 0.0001 µM,0.999 GR
same,GR value,Flavopiridol [3]; 0.0003162 µM,1.06 GR
same,GR value,Flavopiridol [3]; 0.001 µM,0.935 GR
same,GR value,Flavopiridol [3]; 0.003162 µM,0.883 GR
same,GR value,Flavopiridol [3]; 0.01 µM,0.661 GR
same,GR value,Flavopiridol [3]; 0.03162 µM,0.785 GR
same,GR value,Flavopiridol [3]; 0.1 µM,0.58 GR
same,GR value,Flavopiridol [3]; 0.3162 µM,0.0012 GR
same,GR value,Flavopiridol [3]; 1 µM,-0.382 GR
same,GR value,THZ1; 0.0001 µM,1.05 GR
same,GR value,THZ1; 0.0003162 µM,0.839 GR
same,GR value,THZ1; 0.001 µM,0.923 GR
same,GR value,THZ1; 0.003162 µM,0.842 GR
same,GR value,THZ1; 0.01 µM,0.0733 GR
same,GR value,THZ1; 0.03162 µM,-0.46 GR
same,GR value,THZ1; 0.1 µM,-0.462 GR
same,GR value,THZ1; 0.3162 µM,-0.331 GR
same,GR value,THZ1; 1 µM,-0.467 GR
same,GR value,YKL-5-124; 0.001 µM,0.557 GR
same,GR value,YKL-5-124; 0.003162 µM,0.365 GR
same,GR value,YKL-5-124; 0.01 µM,0.267 GR
same,GR value,YKL-5-124; 0.03162 µM,0.198 GR
same,GR value,YKL-5-124; 0.1 µM,0.212 GR
same,GR value,YKL-5-124; 0.3162 µM,0.0489 GR
same,GR value,YKL-5-124; 1 µM,0.154 GR
same,GR value,YKL-5-124; 3.162 µM,0.102 GR
same,GR value,YKL-5-124; 10 µM,-0.42 GR
same,GR value,[4]; 0.0003162 µM,0.986 GR
same,GR value,[4]; 0.001 µM,1.02 GR
same,GR value,[4]; 0.003162 µM,1.09 GR
same,GR value,[4]; 0.01 µM,0.949 GR
same,GR value,[4]; 0.03162 µM,0.62 GR
same,GR value,[4]; 0.1 µM,0.316 GR
same,GR value,[4]; 0.3162 µM,0.35 GR
same,GR value,[4]; 1 µM,0.336 GR
same,GR value,[4]; 3.162 µM,0.378 GR
same,GR value,LEE011/Ribociclib; 0.001 µM,0.777 GR
same,GR value,LEE011/Ribociclib; 0.003162 µM,0.632 GR
same,GR value,LEE011/Ribociclib; 0.01 µM,0.576 GR
same,GR value,LEE011/Ribociclib; 0.03162 µM,0.542 GR
same,GR value,LEE011/Ribociclib; 0.1 µM,0.453 GR
same,GR value,LEE011/Ribociclib; 0.3162 µM,0.46 GR
same,GR value,LEE011/Ribociclib; 1 µM,0.0072 GR
same,GR value,LEE011/Ribociclib; 3.162 µM,0.199 GR
same,GR value,LEE011/Ribociclib; 10 µM,0.383 GR
same,"GR50, 72 h",[5],< 0.001 µM
same,"GR50, 72 h",Taselisib/GDC0032,0.962 µM
same,"GR50, 72 h",ABT-737,0.362 µM
same,"GR50, 72 h",Saracatinib/AZD0530,> 10 µM
same,"GR50, 72 h",Flavopiridol [6],0.0802 µM
